The values below come from paper PMC4476283 (Biochemistry, 2015).

Converted amounts (≈) assume the structure as drawn. Marks after values point to notes of the source that are not given here. A value given as a limit tells only on which side of the number the result lay.

Assay [1] has as its system OXA-24/40. The note with it: ref Kaitany et al. [13], cited from earlier work; for Km: 50 mM NaH2PO4, 25 mM NaHCO3, pH 7.4, 25°C; for Ks (competition kinetics with ampicillin as reporter substrate): from IC50 by Cheng-Prusoff.
The target of assay [2] is OXA-225 (OXA-23 P225S) (Acinetobacter baumannii, UniProt Q9L4P2, P225S). The experiment in a line: Steady-state kinetic analysis of β-lactam hydrolysis by OXA-225. Format: biochemical. The settings on record: for kcat / Km / Ks (competition kinetics with ampicillin as reporter substrate): OXA-225; for Km: 50 mM NaH2PO4, 25 mM NaHCO3, pH 7.4, 25°C; for Ks (competition kinetics with ampicillin as reporter substrate): from IC50 by Cheng-Prusoff.

The subject of assay [3] is OXA-160 (OXA-24/40 P227S). It counts as biochemical, Acinetobacter baumannii. The settings on record: for kcat / Km / Ks (competition kinetics with ampicillin as reporter substrate): OXA-160; for Km: 50 mM NaH2PO4, 25 mM NaHCO3, pH 7.4, 25°C; for Ks (competition kinetics with ampicillin as reporter substrate): from IC50 by Cheng-Prusoff.
The test system of assay [4] is OXA-23. The note with it: ref Kaitany et al. [13], cited from earlier work; for Km: 50 mM NaH2PO4, 25 mM NaHCO3, pH 7.4, 25°C; for Ks (competition kinetics with ampicillin as reporter substrate): from IC50 by Cheng-Prusoff.
Assay [5] deals with A. baumannii strain that yielded OXA-160. The settings on record: A. baumannii strain from which OXA-160 was derived; cited from earlier work.
[6] abbreviates: conversion of OXA-24/40 to OXA-160.

By Km is commonly meant the concentration of substrate that gives half-maximal velocity. By kcat is commonly meant the maximal rate divided by the concentration of active sites. Take `CC1(C)S[C@@H]2[C@H](NC(=O)[C@H](N)c3ccccc3)C(=O)N2[C@H]1C(=O)O` [Ampicillin, ampicillin]: the Km in assay [1] is 180 ± 20 µM; in assay [2] it was 12 ± 1 µM; in assay [3] it was 13 ± 1 µM; in assay [4] it was 82 ± 9 µM. Further, the turnover number (kcat) in assay [1] was 480 ± 20 s⁻¹; in assay [2], 150 ± 10 s⁻¹; in assay [3], 93 ± 2 s⁻¹; in assay [4], 460 ± 10 s⁻¹. Also, the “gain (increase) in kcat/Km from the P→S substitution” value in assay [2] (OXA-225 compared to OXA-23) is ~ 2 fold. In addition, the “gain in kcat/Km from the P→S substitution” value in assay [3] (OXA-160 compared to OXA-24/40) is given as ~ 3 fold.

By MIC is commonly meant the lowest concentration that inhibits growth of the organism. Take `C[C@H]1[C@H](NC(=O)/C(=N\OC(C)(C)C(=O)O)c2csc(N)n2)C(=O)N1S(=O)(=O)O` [Aztreonam, aztreonam]: the minimal inhibitory concentration (MIC) in assay [5] is 128 µg/mL (≈ 294 µM). The Michaelis-Menten constant (Km) is > 1500 µM in assay [1], 13 ± 2 µM in assay [2] and 2400 µM in assay [4]. Also, the catalytic constant (kcat) in assay [1] is >0.3 s⁻¹; in assay [2] it was 0.79 ± 0.03 s⁻¹; in assay [3], 2.7 ± 0.2 s⁻¹; in assay [4], 0.24 ± 0.01 s⁻¹.

On to `CO/N=C(\C(=O)N[C@@H]1C(=O)N2C(C(=O)O)=C(COC(C)=O)CS[C@H]12)c1csc(N)n1` [Cefotaxime, cefotaxime], for which the Km in assay [1] was 750 ± 70 µM; in assay [2], 100 ± 20 µM; in assay [3], 170 ± 5 µM; in assay [4] it was 340 ± 30 µM. Further, the catalytic constant (kcat) is 0.38 ± 0.01 s⁻¹ in assay [1], 3.2 ± 0.2 s⁻¹ in assay [2], 0.41 ± 0.01 s⁻¹ in assay [3] and 5.5 ± 0.1 s⁻¹ in assay [4].

Consider `CC(C)(O/N=C(\C(=O)N[C@@H]1C(=O)N2C(C(=O)[O-])=C(C[n+]3ccccc3)CS[C@H]12)c1csc(N)n1)C(=O)O` [Ceftazidime, ceftazidime], for which the “hydrolytic activity (in words)” value in assay [1] and in assay [4] was “no activity” each time. Also, the kcat was <0.02 s⁻¹ in assay [1], 1.4 ± 0.1 s⁻¹ in assay [2], >0.80 s⁻¹ in assay [3] and <0.02 s⁻¹ in assay [4]. Moreover, the Michaelis-Menten constant (Km) in assay [2] is 1400 µM; in assay [3], > 3000 µM.

On to `CO/N=C(\C(=O)N[C@@H]1C(=O)N2C(C(=O)O)=C(CSc3nc(=O)c(=O)[nH]n3C)CS[C@H]12)c1csc(N)n1` [Ceftriaxone, ceftriaxone], for which the Km in assay [1] was 110 ± 10 µM; in assay [3], 14 ± 0.8 µM; in assay [4], 5.4 ± 0.5 µM. The turnover number (kcat) in assay [1] is 0.035 ± 0.001 s⁻¹; in assay [2], 0.051 ± 0.002 s⁻¹; in assay [3], 0.24 ± 0.01 s⁻¹; in assay [4], 0.021 ± 0.001 s⁻¹. In assay [2], the “Ks (competition kinetics with ampicillin as reporter substrate)” value (from here on “Ks”) is 0.48 ± 0.05 ^b µM.

As to `C[C@@H](O)[C@H]1C(=O)N2C(C(=O)O)=C(S[C@@H]3CN[C@H](CNS(N)(=O)=O)C3)[C@H](C)[C@H]12` [Doripenem, doripenem], the “Ks” value in assay [1] was 0.024 ± 0.003 ^b µM; in assay [2], 0.027 ± 0.005 ^b µM; in assay [3], 0.014 ± 0.003 ^b µM; in assay [4], 0.018 ± 0.002 ^b µM. In addition, the kcat is 0.074 ± 0.001 s⁻¹ in assay [1], 0.026 ± 0.002 s⁻¹ in assay [2], 0.064 ± 0.001 s⁻¹ in assay [3] and 0.028 ± 0.003 s⁻¹ in assay [4]. In assay [3] (setting [6]), the “increase in kcat/Km” value is on record as 40%.

For the molecule `C[C@@H](O)[C@H]1C(=O)N2C(C(=O)O)=C(SCCN=CN)C[C@H]12` [Imipenem, imipenem], the “Ks” value in assay [1] is on record as 0.68 ± 0.09 ^b µM; in assay [2] it was 0.20 ± 0.02 ^b µM; in assay [3] it was 0.043 ± 0.005 ^b µM; in assay [4], 0.20 ± 0.02 ^b µM. Moreover, the turnover number (kcat) in assay [1] was 2.1 ± 0.1 s⁻¹; in assay [2] it was 0.39 ± 0.01 s⁻¹; in assay [3], 0.12 ± 0.01 s⁻¹; in assay [4], 0.49 ± 0.01 s⁻¹. For the same molecule, the “decrease in kcat/Km” value in assay [3] (setting [6]) is listed as 10%.

On to `CO/N=C(\C(=O)N[C@@H]1C(=O)N2C(C(=O)[O-])=C(C[N+]3(C)CCCC3)CS[C@H]12)c1csc(N)n1` [cefepime], for which the MIC in assay [5] was 64 µg/mL (≈ 133 µM).

Consider `C[C@@H](O)[C@H]1C(=O)N2C(C(=O)O)=C(S[C@@H]3CN[C@H](C(=O)N(C)C)C3)[C@H](C)[C@H]12` [meropenem], for which the minimal inhibitory concentration (MIC) in assay [5] is 16 µg/mL (≈ 41.7 µM).
